Source: patent US5710173A, “Thienyl compounds for inhibition of cell proliferative disorders” (Sugen, Inc., priority 1995, dated 1998)
pIC50: −log10 of the molar value.

What was measured:
[1] = target: T1, EGFR (Homo sapiens, UniProt P00533); experiment: EGFR Whole Cell Kinase Assay; type: cell-based; settings: EGFR/C7 NIH3T3 cells, EGF 25 nM; quantity and unit inferred; read-out: ELISA DATA, EGFR
T1 construct: expressed in transfected cells; host or cells: NIH3T3 clone C7 (EGFR/C7)
Text: The following examples illustrates the ability of the exemplary compounds to inhibit receptor tyrosine kinases, such as HER2 and/or EGFR. The following target cells were used for cellular kinase assays: NIH3T3 clone C7 (Honegger et al., supra) engineered to over-express human EGF receptor; NIH3T3 cells engineered to over-express a chimeric receptor containing the EGFR extracellular domain and the HER2 intracellular kinase domain; the human mammary carcinoma line BT474 (ATCC HTB2) expressing HER2; and the human glioblastoma line U1242 that expresses PDGFR-beta. Growth assays were carried out using human mammary epithelial SKBR3 (ATCC HTB30) cells (SKBR3 cells over-express HER2), SKOV3 (ATCC HTB77) human ovarian cancer cell line (SKOV3 cells also over-express HER2), A431 cells (A431 cells over-express EGFR) MCF7 human breast carcinoma cells, MCF7 cells overexpressing the HER2 kinase (MCF7-HER2), NIH3T3 cells, and NIH3T3 cells overexpressing the HER2 kinase (3T3-HER2.
EGFR Whole Cell Kinase Assay
EGFR kinase activity (EGFR-3T3 assay) in whole cells was measured as described below:
1) EGF Ligand: stock concentration=16.5 μM; EGF 201, TOYOBO, Co., Ltd. Japan.
2) 05-101 (UBI) (a monoclonal antibody recognizing an EGFR extracellular domain).
3) Anti-Phosphotyosine antibody (polyclonal) (made according to Fendley et al., Cancer Research 50:1550-1558, 1990). […]

[2] = test system: IGF-1R protein tyrosine kinase; settings: Sepp-Lorenzino et al., Abstract, 1994; cited from earlier work
[3] = test system: human breast cancer cells; settings: Sepp-Lorenzino et al., Abstract, 1994; cited from earlier work

T1 sequence (P00533 25-1210): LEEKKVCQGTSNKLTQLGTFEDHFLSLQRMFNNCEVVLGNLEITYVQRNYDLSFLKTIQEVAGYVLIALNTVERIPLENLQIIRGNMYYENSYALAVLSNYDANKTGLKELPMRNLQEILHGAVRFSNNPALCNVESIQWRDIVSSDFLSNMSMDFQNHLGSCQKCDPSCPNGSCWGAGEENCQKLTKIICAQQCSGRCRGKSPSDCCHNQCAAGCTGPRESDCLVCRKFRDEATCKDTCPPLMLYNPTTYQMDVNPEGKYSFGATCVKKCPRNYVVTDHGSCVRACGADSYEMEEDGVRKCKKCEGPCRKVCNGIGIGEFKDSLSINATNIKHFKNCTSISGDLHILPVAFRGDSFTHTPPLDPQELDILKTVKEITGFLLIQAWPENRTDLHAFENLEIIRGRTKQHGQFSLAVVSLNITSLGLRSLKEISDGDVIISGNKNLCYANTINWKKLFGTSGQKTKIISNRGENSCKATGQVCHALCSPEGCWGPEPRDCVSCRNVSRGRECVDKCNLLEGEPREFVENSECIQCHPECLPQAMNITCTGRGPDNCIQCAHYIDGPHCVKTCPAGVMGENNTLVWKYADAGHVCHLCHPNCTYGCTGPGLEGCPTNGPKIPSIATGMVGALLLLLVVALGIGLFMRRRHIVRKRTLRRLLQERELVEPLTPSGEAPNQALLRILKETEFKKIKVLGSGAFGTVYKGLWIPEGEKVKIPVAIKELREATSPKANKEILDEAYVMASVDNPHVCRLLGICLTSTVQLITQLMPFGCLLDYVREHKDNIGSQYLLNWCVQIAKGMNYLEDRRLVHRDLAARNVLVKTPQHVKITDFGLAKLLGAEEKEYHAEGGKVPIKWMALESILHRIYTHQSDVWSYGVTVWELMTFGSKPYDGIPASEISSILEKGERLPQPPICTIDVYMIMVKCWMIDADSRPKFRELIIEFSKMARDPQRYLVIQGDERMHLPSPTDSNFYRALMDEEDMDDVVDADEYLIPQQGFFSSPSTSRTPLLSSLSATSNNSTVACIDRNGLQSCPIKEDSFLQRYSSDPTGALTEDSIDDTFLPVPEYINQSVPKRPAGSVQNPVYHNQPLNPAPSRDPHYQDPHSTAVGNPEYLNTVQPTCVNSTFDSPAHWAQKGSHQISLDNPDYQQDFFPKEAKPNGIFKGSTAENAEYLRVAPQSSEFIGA

pIC50 [1] | Structure (SMILES) | said to inhibit the IGF-1R protein tyrosine kinase [2] | said to inhibit cellular proliferation in human breast cancer cells [3]
< 4.00 | N#C/C(=C\c1ccc([N+](=O)[O-])s1)S(=O)(=O)c1ccccc1 [Example G771, (E)-3-(2-nitrothien-5-yl)-2-phenylsulfonylacrylonitrile] | – | –
< 4.00 | N#C/C(=C\c1ccc([N+](=O)[O-])s1)S(=O)(=O)c1ccccn1 [Example G772, (E)-3-(2-nitrothien-5-yl)-2-[(pyridin-2-yl)sulfonyl]acrylonitrile] | – | –
– | COC1C=CC=C(C)C(=O)NC2=CC(=O)C=C(C2=O)C(OC)C(C)CC(OC)C(OC)C(C)C=C(C)C1OC(N)=O (stereo not shown) [Herbimycin A] | inhibit | inhibit
